Reference: US9409952B2, “Peptide-compound cyclization method” (Chugai Seiyaku Kabushiki Kaisha, priority 2011, dated 2016)
Where a name gives a salt, the structure may show the parent alone. Read-outs that look alike come from different tables or passages of the source. Starred links: 1 amine or outer side, 2 acyl side, 3 side chain; linkers in the order of their positions; H or OH if unused. Positions of bridges follow the written chain, without caps; N, C: chain ends. Non-standard residues stand in square brackets, D forms with d. Residues, ends and D or L forms follow the SMILES beside them. ξ: configuration not given here. *: point of attachment. Phe(4-(CH2)5CO) = O=C([C@H](Cc1ccc(CCCCCC(=O)[*:3])cc1)N[*:1])[*:2]; Phe(3-(CH2)4CO) = O=C([C@H](Cc1cccc(CCCCC(=O)[*:3])c1)N[*:1])[*:2]; NMeF = CN[C@@H](Cc1ccccc1)C(=O)O; NMeGABA = CN(CCCC(=O)[*:2])[*:1]; NMeI = CC[C@H](C)[C@H](NC)C(=O)O; NMeβAla = CN(CCC(=O)[*:2])[*:1]; NMeL = CN[C@@H](CC(C)C)C(=O)O; ξNMeF = CNC(Cc1ccccc1)C(=O)O; NMeV = CN[C@H](C(=O)O)C(C)C; NMeS = CN[C@@H](CO)C(=O)O; NMeA = CN[C@@H](C)C(=O)O; Piperidide = C1CCN(*)CC1; dNMeA = CN[C@H](C)C(=O)O; β3hA = C[C@H](N)CC(=O)O; Abu = CC[C@H](N)C(=O)O; Sar = CNCC(=O)O; tBu = CC(C)(C)*

Columns and labels:
[1] = PAMPA (parallel artificial membrane permeability assay); assay type: in vitro ADME; conditions: PAMPA
Procedure, shortened: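 Artificial membrane was 10% (w/v) egg lecithin plus 0.5% (w/v) cholesterol in dodecane on a PVDF filter. A 10 mM DMSO stock was added at 0.5% (v/v) to donor buffer (50 mM MOPSO, pH 6.5, 5.0% glycocholic acid). After 18 h at 37 °C, LC/MS or LC/UV gave donor and acceptor levels for Pe.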

[2] = Metabolic stability in human hepatic microsome; assay type: in vitro ADME; conditions: microsomes
[3] = membrane permeation rate (Pe), 50 mM MOPSO buffer pH 6.5 with 5.0% glycocholic acid, 37° C., 18 hours, read-out: iPAMPA Pe
[4] = pH 7.4, human hepatic microsome, NADPH(+), read-out: CL NADPH(+)

| Structure (SMILES) | Papp at 18 hours, 50 µM ([1]; pH 6.5) [×10⁻⁶ cm/s] | microsomal CLint at 1 uM ([2]; human, pH 7.4, CL NADPH(+)) [µL/min/mg] | Papp at 18 hours, 50 µM [1, 3] [×10⁻⁶ cm/s] | microsomal CLint at 1 uM [2, 4] [µL/min/mg] |
| --- | --- | --- | --- | --- |
| CC[C@H](C)[C@H]1C(=O)N(C)[C@@H](CC(C)C)C(=O)N[C@H](C(=O)N2CCCCC2)CC(=O)N(C)[C@H](C)C(=O)N(C)[C@@H](CC(C)C)C(=O)N[C@@H](CC(C)C)C(=O)N(C)[C@@H](Cc2ccccc2)C(=O)N[C@@H](COC(C)(C)C)C(=O)N(C)[C@@H](Cc2ccccc2)C(=O)N[C@@H]([C@@H](C)O)C(=O)N(C)[C@@H](C)C(=O)N1C [DP-49] ([dNMeA][NMeL]L[NMeF]S(tBu)[NMeF]T[NMeA][NMeI][NMeL]D-Piperidide; lactam N-11) | 18 | 51 |  |  |
| CC(C)C[C@H]1C(=O)N(C)[C@@H](C)C(=O)N[C@H](C(=O)N(C)[C@@H](Cc2ccccc2)C(=O)N[C@@H](C)C(=O)N2CCCCC2)CC(=O)N(C)CC(=O)N[C@@H](C(C)C)C(=O)N(C)[C@@H](Cc2ccccc2)C(=O)N(C)[C@@H](CC(C)C)C(=O)N[C@@H]([C@@H](C)O)C(=O)N(C)CC(=O)N1C [DP-388] ([Sar]V[NMeF][NMeL]T[Sar][NMeL][NMeA]D[NMeF]A-Piperidide; lactam N-9) |  |  | 11 | 41 |
| CC(C)C[C@@H]1NC(=O)[C@H](CC(C)C)N(C)C(=O)CNC(=O)[C@H](Cc2ccccc2)NC(=O)[C@H](C(C)C)N(C)C(=O)[C@H](Cc2ccccc2)NC(=O)[C@H](C)N(C)C(=O)CCN(C)C(=O)C[C@@H](C(=O)N(C)[C@@H](Cc2ccccc2)C(=O)N[C@@H](C)C(=O)N2CCCCC2)NC(=O)[C@H](C)N(C)C(=O)[C@H](CC(C)C)N(C)C1=O [DP-282] ([NMeβAla][NMeA]F[NMeV]FG[NMeL]L[NMeL][NMeA]D[NMeF]A-Piperidide; lactam N-11) | 28 | 138 |  |  |
| CC(C)C[C@H]1C(=O)N[C@@H]([C@@H](C)O)C(=O)N(C)[C@@H](Cc2ccccc2)C(=O)N(C)[C@@H](CC(C)C)C(=O)NCC(=O)N(C)[C@@H](C(C)C)C(=O)N[C@@H](Cc2ccccc2)C(=O)N[C@H](C(=O)N(C)[C@@H](Cc2ccccc2)C(=O)N[C@@H](C)C(=O)N2CCCCC2)CC(=O)N(C)[C@H](C)C(=O)N[C@@H](C(C)C)C(=O)N1C [DP-301] ([dNMeA]V[NMeL]T[NMeF][NMeL]G[NMeV]FD[NMeF]A-Piperidide; lactam N-10) | 15 | 184 |  |  |
| CC[C@H](C)[C@H](NC(=O)[C@H](CC(C)C)N(C)C(=O)CN(C)C(=O)[C@@H](NC(=O)[C@@H]1CC(=O)N[C@H](C(C)C)C(=O)N[C@@H](C)C(=O)N[C@@H]([C@@H](C)O)C(=O)N(C)[C@@H](C)C(=O)N[C@@H](Cc2ccccc2)C(=O)N(C)[C@@H](CC(C)C)C(=O)N(C)[C@@H](Cc2ccccc2)C(=O)N(C)[C@@H](CC(C)C)C(=O)N1)C(C)C)C(=O)N1CCCCC1 [DP-939] ([dV]AT[NMeA]F[NMeL][NMeF][NMeL]DV[Sar][NMeL]I-Piperidide; lactam N-9) |  |  | 3.6 | 8 |
| CC[C@H](C)[C@@H]1NC(=O)[C@H](CC(C)C)N(C)C(=O)[C@H](Cc2ccccc2)N(C)C(=O)[C@H](CC(C)C)NC(=O)CCCCCc2ccc(cc2)C[C@@H](C(=O)N2CCCCC2)NC(=O)[C@H](C)N(C)C(=O)[C@H](C)N(C)C(=O)CN(C)C(=O)[C@H]([C@@H](C)O)NC(=O)[C@H](Cc2ccccc2)N(C)C(=O)[C@H](C(C)C)N(C)C1=O [DP-875] (L[NMeF][NMeL]I[NMeV][NMeF]T[Sar][NMeA][NMeA][Phe(4-(CH2)5CO)]-Piperidide; lactam N-11) |  |  | 19 | 34 |
| CC[C@H](C)[C@H]1C(=O)N[C@@H](CC(C)C)C(=O)N(C)CC(=O)N[C@@H]([C@@H](C)O)C(=O)N[C@@H](Cc2ccccc2)C(=O)N[C@@H](C)C(=O)N(C)[C@@H](CC(C)C)C(=O)N[C@@H](Cc2ccccc2)C(=O)N[C@@H](C(C)C)C(=O)N[C@H](C(=O)N2CCCCC2)CC(=O)N[C@@H](C)C(=O)N[C@@H](CC(C)C)C(=O)N1C [DP-35] (AL[NMeI]L[Sar]TFA[NMeL]FVD-Piperidide; lactam N-12) | 12 | 32 |  |  |
| CC(C)C[C@H]1C(=O)N[C@@H](C(C)C)C(=O)N[C@H](C(=O)N(C)C(Cc2ccccc2)C(=O)N(C)[C@@H](Cc2ccccc2)C(=O)N[C@@H](C)C(=O)N2CCCCC2)CC(=O)N[C@H](C)C(=O)N(C)[C@@H](C)C(=O)N(C)[C@@H](Cc2ccccc2)C(=O)N(C)[C@@H](CC(C)C)C(=O)N[C@@H]([C@@H](C)O)C(=O)N(C)CC(=O)N1C (stereo partly shown) [DP-315] ([dA][NMeA][NMeF][NMeL]T[Sar][NMeL]VD[ξNMeF][NMeF]A-Piperidide; lactam N-9) | 30 | 63 |  |  |
| CC(C)C[C@@H]1NC(=O)[C@H](CCC(=O)O)NC(=O)[C@@H]2CCCN2C(=O)[C@H](CC(C)C)NC(=O)[C@H](CC(C)C)N(C)C(=O)[C@H](Cc2ccccc2)NC(=O)[C@H](C)N(C)C(=O)[C@H](CC(C)C)N(C)C(=O)[C@H](Cc2ccccc2)NC(=O)CN(C)C(=O)C[C@@H](C(=O)N(C)[C@@H](Cc2ccccc2)C(=O)N[C@@H](C)C(=O)N2CCCCC2)NC1=O [DP-595] ([Sar]F[NMeL][NMeA]F[NMeL]LPELD[NMeF]A-Piperidide; lactam N-11) | 4.9 | 9 |  |  |
| CC(C)C[C@H]1C(=O)N(C)[C@@H](C(C)C)C(=O)N[C@@H](Cc2ccccc2)C(=O)N[C@H](C(=O)N(C)[C@@H](Cc2ccccc2)C(=O)N[C@@H](C)C(=O)N2CCCCC2)CC(=O)N(C)CCCC(=O)N[C@@H](C(C)C)C(=O)N(C)[C@@H](CC(C)C)C(=O)N[C@@H]([C@@H](C)O)C(=O)N(C)[C@@H](Cc2ccccc2)C(=O)NCC(=O)N1C [DP-372] ([NMeGABA]V[NMeL]T[NMeF]G[NMeL][NMeV]FD[NMeF]A-Piperidide; lactam N-10) |  |  | 42 | 78 |
| CC(C)C[C@H]1C(=O)NCC(=O)N[C@H](C(=O)N(C)[C@@H](Cc2ccccc2)C(=O)N[C@@H](C)C(=O)N2CCCCC2)CC(=O)N[C@H](C)C(=O)N[C@@H]([C@@H](C)O)C(=O)N(C)[C@@H](C)C(=O)N(C)[C@@H](Cc2ccccc2)C(=O)N[C@@H](C(C)C)C(=O)N(C)[C@@H](Cc2ccccc2)C(=O)N1C [DP-307] ([dA]T[NMeA][NMeF]V[NMeF][NMeL]GD[NMeF]A-Piperidide; lactam N-9) | 22 | 125 |  |  |
| CC[C@@H]1NC(=O)[C@H](CO)N(C)C(=O)[C@H](CC(C)C)N(C)C(=O)[C@H](CC(C)C)N(C)C(=O)[C@H](CC(C)C)N(C)C(=O)[C@@H](CC(C)C)NC(=O)[C@H](C)NC(=O)[C@H](CC(C)C)N(C)C(=O)[C@H](C)NC(=O)[C@H](CC(C)C)N(C)C(=O)C[C@H](C)NC1=O [DP-650] (cyclo(A[NMeL]A[dL][NMeL][NMeL][NMeL][NMeS][Abu][β3hA][NMeL])) |  |  | 26 | 33 |
| CC[C@H](C)[C@@H]1NC(=O)[C@H](C)NC(=O)C[C@H](C)NC(=O)[C@H](CC(C)C)NC(=O)[C@H](CC(C)C)NC(=O)[C@H](C(C)C)NC(=O)[C@H](C)N(C)C(=O)[C@H](CC(C)C)NC(=O)CNC(=O)[C@H]([C@@H](C)O)NC(=O)[C@H](CC(C)C)N(C)C(=O)[C@@H]2CCCN2C1=O [DP-808] (cyclo(AIP[NMeL]TGL[NMeA]VLL[β3hA])) | 3.3 | 33 |  |  |
| CC[C@H](C)[C@@H]1NC(=O)[C@H](Cc2ccccc2)NC(=O)CCCCc2cccc(c2)C[C@@H](C(=O)N2CCCCC2)NC(=O)[C@H](CC(C)C)NC(=O)[C@H](CC(C)C)NC(=O)[C@H](C(C)C)NC(=O)[C@H](C)N(C)C(=O)[C@H](Cc2ccccc2)NC(=O)CNC(=O)[C@H]([C@@H](C)O)NC(=O)[C@H](CC(C)C)NC(=O)[C@@H]2CCCN2C1=O [DP-903] (FIPLTGF[NMeA]VLL[Phe(3-(CH2)4CO)]-Piperidide; lactam N-12) |  |  | 0.34 | 26 |
| CC[C@H](C)[C@H]1C(=O)N[C@H](C(=O)N2CCCCC2)CC(=O)N(C)[C@H](C)C(=O)N(C)[C@@H](Cc2ccccc2)C(=O)N(C)[C@@H](CC(C)C)C(=O)N[C@@H]([C@@H](C)O)C(=O)N(C)CC(=O)N[C@@H](COC(C)(C)C)C(=O)N(C)[C@@H](CC(C)C)C(=O)N1C [DP-81] ([dNMeA][NMeF][NMeL]T[Sar]S(tBu)[NMeL][NMeI]D-Piperidide; lactam N-9) | 25 | 38 |  |  |
| CC(C)C[C@H]1C(=O)N[C@@H]([C@@H](C)O)C(=O)N(C)[C@@H](C)C(=O)N[C@@H](C(C)C)C(=O)N(C)[C@@H](C)C(=O)N(C)[C@@H](C)C(=O)N[C@H](C(=O)N(C)[C@@H](Cc2ccccc2)C(=O)N(C)[C@@H](Cc2ccccc2)C(=O)N[C@@H](C)C(=O)N2CCCCC2)CC(=O)N(C)[C@@H](C)C(=O)N(C)[C@@H](Cc2ccccc2)C(=O)N1C [DP-464] ([NMeA][NMeF][NMeL]T[NMeA]V[NMeA][NMeA]D[NMeF][NMeF]A-Piperidide; lactam N-9) |  |  | 25 | 30 |
| CC[C@H](C)[C@@H]1NC(=O)[C@H](CC(C)C)NC(=O)[C@@H](C)N(C)C(=O)C[C@@H](C(=O)N2CCCCC2)NC(=O)[C@H](C(C)C)N(C)C(=O)[C@H](CC(C)C)NC(=O)[C@H](Cc2ccccc2)NC(=O)[C@H]([C@@H](C)O)NC(=O)[C@H](CC(C)C)NC(=O)CN(C)C(=O)[C@H](C)NC1=O [DP-475] ([dNMeA]LIA[Sar]LTFL[NMeV]D-Piperidide; lactam N-11) |  |  | 16 | 35 |
